Experiments:
[1] = Pharmacokinetics of A-002; conditions: in vivo
stable CVD population = conditions: cited from earlier work

For `CCc1c(C(=O)C(N)=O)c2c(OCC(=O)OC)cccc2n1Cc1ccccc1` [A-002, [[3-(2-Amino-1,2-dioxoethyl)-2-ethyl-1-(phenylmethyl)-1H-indol-4-yl]oxy]acetic acid methyl ester], the “absorption and conversion to active molecule” value [1] is given as “rapidly absorbed and hydrolyzed to the active A-001 molecule”, the “effect on cholesterol levels” value (stable CVD population; once- or twice-daily administration, stable CVD population, diabetic and high baseline LDL-C subpopulations) is given as “decreases total cholesterol, LDL-C, total LDL-C particle, and small LDL-C particle levels” and the “effect on inflammatory markers” value (stable CVD population; stable populations) is given as “decreases levels of various inflammatory markers such as hs-CRP and sPLA2”.

From patent US20100160361A1, “TREATMENT OF MAJOR ADVERSE CARDIAC EVENTS AND ACUTE CORONARY SYNDROME USING SECRETORY PHOSPHOLIPASE A2 (SPLA2) INHIBITOR OR SPLA2 INHIBITOR COMBINATION THERAPIES” (priority 2008, published 2010)
